From publication PMC6232110, “Two novel, putative mechanisms of action for citalopram-induced platelet inhibition” (Scientific Reports, 2018) come the findings set out here.

The target of one test is T1, CalDAG-GEFI (Homo sapiens, UniProt Q7LDG7).
T1 construct: gene RASGRP2; recombinant 6xHis, C-terminal truncation p.(Ala552_Leu609del); with Rap1B
The test can be described thus: BODIPY-FL-GDP fluorescence nucleotide exchange assay with purified recombinant CalDAG-GEFI and Rap1B. In kind it is biochemical. An excerpt: BODIPY-FL-GDP fluorescence nucleotide exchange assay with purified recombinant CalDAG-GEFI and Rap1B on CalDAG-GEFI | Citalopram inhibited CalDAG-GEFI-mediated BODIPY-FL-GDP exchange onto Rap1B in a concentration-dependent manner

The target of another test is T2, glycoprotein VI (GPVI) (Homo sapiens, UniProt Q9HCN6).
T2 construct: gene GP6; native GPVI on washed human platelets; with FcRγ chain
T2 sequence (Q9HCN6 21-339): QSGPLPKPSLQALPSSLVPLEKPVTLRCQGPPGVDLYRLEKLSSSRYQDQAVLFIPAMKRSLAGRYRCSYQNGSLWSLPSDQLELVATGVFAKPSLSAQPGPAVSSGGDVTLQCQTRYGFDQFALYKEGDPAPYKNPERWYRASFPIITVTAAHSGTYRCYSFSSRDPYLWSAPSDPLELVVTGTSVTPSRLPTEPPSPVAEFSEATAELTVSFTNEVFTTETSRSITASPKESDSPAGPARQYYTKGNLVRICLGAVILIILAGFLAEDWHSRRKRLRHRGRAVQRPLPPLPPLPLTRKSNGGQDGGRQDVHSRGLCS
T2 sequence (P30273 19-86 partner): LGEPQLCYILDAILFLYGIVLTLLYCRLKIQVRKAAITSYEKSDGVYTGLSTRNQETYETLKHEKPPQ
The test can be described thus: Schild analysis of CRPXL-induced platelet aggregation; inhibition of anti-GPVI antibody binding by flow cytometry. In kind it is cell-based. To be noted: platelets; read-out: Kd. On the technique in general: Flow cytometry measures light scatter and fluorescence of single cells or particles in a stream.

T1 sequence (P61224 1-167): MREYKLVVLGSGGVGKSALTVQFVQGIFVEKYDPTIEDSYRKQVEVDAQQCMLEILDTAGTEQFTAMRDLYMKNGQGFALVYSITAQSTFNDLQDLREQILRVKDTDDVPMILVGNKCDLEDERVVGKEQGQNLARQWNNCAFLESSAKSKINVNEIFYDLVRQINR
T1 sequence (Q7LDG7 1-551): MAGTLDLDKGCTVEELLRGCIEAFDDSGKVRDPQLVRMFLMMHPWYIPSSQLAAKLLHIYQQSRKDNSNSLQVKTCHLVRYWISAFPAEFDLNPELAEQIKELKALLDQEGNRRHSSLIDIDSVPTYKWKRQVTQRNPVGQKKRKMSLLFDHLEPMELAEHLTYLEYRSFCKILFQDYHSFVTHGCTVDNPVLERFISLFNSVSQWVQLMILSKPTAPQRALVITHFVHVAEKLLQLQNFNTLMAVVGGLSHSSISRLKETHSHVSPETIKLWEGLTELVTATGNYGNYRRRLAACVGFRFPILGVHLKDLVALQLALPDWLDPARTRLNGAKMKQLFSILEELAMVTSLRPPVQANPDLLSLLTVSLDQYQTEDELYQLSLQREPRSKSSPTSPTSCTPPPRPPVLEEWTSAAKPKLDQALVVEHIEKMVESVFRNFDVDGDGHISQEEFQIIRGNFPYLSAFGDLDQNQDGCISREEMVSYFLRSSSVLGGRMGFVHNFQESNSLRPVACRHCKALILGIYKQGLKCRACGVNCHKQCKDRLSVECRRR

As a reminder, the IC50 is the concentration that inhibits the measured activity by half. In the case of `CN(C)CCCC1(c2ccc(F)cc2)OCc2cc(C#N)ccc21` (racemic) [citalopram], the IC50 at CalDAG-GEFI is 214 µM. Also, at glycoprotein VI (GPVI), the Kb is approximately 16 µM.
